Data reported in patent publication US20050063956A1, “Method and device for attracting insects” (Colorado State University Research Foundation, priority 1998, published 2005).
Several values for one entry are separate records, joined by “and”; a condition that tells them apart may be missing. Identical values can stand only once. Entries after “also recorded” stand apart in the source; their conditions may differ.

Test system: western corn root worm larvae
Test: Glass bead Y-tube choice-test bioassay (Example 18)
Assay type: in vivo, Diabrotica virgifera virgifera LeConte
Conditions: for CO2 selective response, choice between two concentrations: base 1, 2, 5, 10, 20 mmol/mol
Experimental: Bioassay Apparatus. The choice-test bioassay apparatus (FIG. 34) was constructed from a glass Y-tube filled with glass beads to simulate the thigmotactic cues of the soil environment that are ordinarily encountered by western corn root worm larvae. The glass Y-tube was fabricated by a local glassblower (9.5 mm inside diameter, 60° angles, with each branch 3 cm long), and clamped to a ring stand with 2 branches of the “Y” facing down. A glass connection tube (4 cm long, 0.5 cm diameter) with a piece of vinyl screen (2.5-mm mesh) held over 1 end by a 0.5-cm section of Teflon tubing (6 mm inside diameter) was inserted snugly into the end of each of the arms of the Y-tube to support the glass beads. Glass beads (3 mm, cat. no. 11-312A, Fisher Scientific, Pittsburgh, Pa.) were poured into the top of the Y-tube, filling the entire apparatus to within 0.5 cm of the top (250 beads). A 5-mm NMR tube cap (cat. no. 100-0050, Drummond Scientific, Broomall, Pa.) was fitted into the other end of each glass connection tube, with a hole to allow snug insertion of a 20-cm piece of slender Teflon tubing (0.8 mm inside diameter) for introduction of volatile chemical cues into each arm of the bioassay apparatus. Two techniques were used to introduce candidate chemical cues into the 2 arms of the apparatus: 1 used shell vials as chemical sources, and the other used syringes as chemical sources.
Shell Vial Sources. In this 1st approach (FIG. 34), two 35-ml polyethylene syringes (cat. no. 106-0490, Sherwood Medical, St. Louis, Mo.) were filled with ambient air, and the air was pumped through shell vials containing candidate chemical cues. Glass shell vials (4 ml) with polyethylene caps were used (cat. no. B7785-1, Baxter Healthcare, McGaw Park, Ill.). A 35-ml syringe was snugly connected with slender Teflon tubing (20 cm) to a hole in the cap of the shell vial. A 2nd piece of slender Teflon tubing was used to connect the shell vial to 1 arm of the bioassay apparatus. The 2 syringes used for each bioassay were connected to a syringe pump (Sage Model 355, Fisher Scientific, Pittsburgh, Pa.) that provided an airflow through each shell vial containing a candidate chemical treatment, and subsequently into a choice arm of the bioassay apparatus. For the shell vial sources of candidate chemical compounds, the shell vial containing either a carbonated water dilution or a corn seed or cut corn roots was left open for 5 min to allow the gas concentrations to reach equilibrium. The vial was capped, and the syringe pump was started, providing an airflow of 1.0 ml/min from each syringe.
Syringe Sources. In this 2nd approach (FIG. 39), 35-ml polyethylene syringes were filled directly with candidate chemical cues (such as the headspace from a container of germinating corn, a sample of CO2 mixed with air, or the headspace from a bottle of carbonated water). Each of the 2 syringes was connected with slender Teflon tubing to 1 arm of the bioassay apparatus. The 2 syringes used for each bioassay were connected to a syringe pump that was adjusted to provide an airflow of 1 ml/min from each syringe.
Bioassay Procedure. For bioassays, 20 newly hatched 1st instars (0-12 hours old) were collected from tubs containing eggs in soil (by using a camel's hair brush) and placed in a covered 5-mm NMR cap with 2 holes (1 mm diameter) drilled in the bottom (FIGS. 34 and 39). These holes were temporarily plugged with a piece of wire bent into a U-shape. The open end of the NMR cap was sealed with a small square of cellophane held in place with a plastic tube (a piece of soda straw) that fit snugly over the open end. The Y-tube apparatus was assembled and filled with glass beads and the appropriate treatment and control sources (shell vials or syringes) were connected to the arms of the Y-tube. The syringe pump was set to provide a flow of 1 ml/min and turned on. […]

## O=C=O [CO2, carbon dioxide]
1, 2, 5, 10, or 20 mmol/mol both sides
  CO2 selective response, equal amounts of CO2 on both sides: no significant differences in attraction were observed
300 or 900 mmol/mol CO2
  larval attraction at high CO2: not attracted
  toxic symptoms of larvae at high CO2: exhibited toxic symptoms; also recorded: lethargic when removed from the apparatus
After removal from apparatus, 300 or 900 mmol/mol CO2
  time to recover normal movement: 5 to 10 min
Base 1 mmol/mol
  smallest difference between the 2 choices still attractive: 0.125 mmol/mol
Difference 0.125 mmol/mol
  CO2 selective response, choice between two concentrations: significantly greater attraction was observed to 1.125 mmol/mol than to 1 mmol/mol; also recorded: no difference in attraction was observed in any of the tests at higher concentrations
Difference 0.25 mmol/mol
  CO2 selective response, choice between two concentrations: more attracted to the higher CO2 concentration for 1 versus 1.25 mmol/mol (FIG. 48), and for 2 versus 2.25 mmol/mol; also recorded: no difference in attraction was observed for 5 versus 5.25 mmol/mol (FIG. 50), for 10 versus 10.25 (FIG. 51) mmol/mol, or for 20 versus 20.25 mmol/mol
Difference 0.50 mmol/mol
  CO2 selective response, choice between two concentrations: no difference in attraction was observed for 20 versus 20.50 mmol/mol
Selective response experiments
  excess of CO2 concentration over control at which larvae were first attracted: 12.5%
Versus ambient air control
  highest concentration of CO2 to which the larvae were attracted: 100 mmol/mol and 85.60±1.20 mmol/mol
Versus ambient air control (0.91-0.99 mmol/mol)
  lowest concentration of CO2 attractive to the larvae: 1.125±0.04 mmol/mol
